Data on four molecules can be found in US20100062961A1, “Good Foaming Creamy or Paste-Like Cleansers Comprising Floor Levels of Long Chain Lipids or Lipid Mimics” (CONOPCO, INC., D/B/A UNILEVER, priority 2008, published 2010).

Series [1] in a line: Solubility of lipid in 5% surfactant solution, Method B absorbance at 500 nm. It counts as physicochemical. The conditions noted are these: 5% Miracare SLB, pH 6.0, Method B.
From the text: Stock solutions of lipid in 5% surfactant solution were mixed in a beaker with an overhead mixer at a temperature above the melting point of the lipid for about an hour. The surfactant solution pH was adjusted to the desired range (usually 6 to 6.6) prior to addition of the lipid. Generally, the lipid concentrations in the stock solutions were at 1% to 2% by weight of solution. The stock solutions were allowed to cool to room temperature. These stock solutions were well above the solubility limit of the lipid as evidenced by considerable cloudiness. The stock solution was gently stirred to achieve a uniform suspension of the lipid insoluble matter, and then added to several small vials (approximately 20 ml capacity) in predetermined amounts. […] In some cases, we have determined solubility by analyzing a dilution series of samples using a UV-Vis 96 spectrophotometer (Spectra Max, Model 340pc). The samples of the dilution series were pipeted into a well plate reader and inserted into the spectrophotometer, which measured absorbance at a wavelength of 500 nm. The solubility limit was determined by extrapolating the absorbance readings to the baseline.
The nature of series [2]: Solubility of lipid in 5% surfactant solution, Method A visual observation. It counts as physicochemical. The source says: (room temperature). The solubility is a function of pH, and increases with increasing pH, but the long chain fatty acids and other lipids (e.g., cholesterol and related sterols and ceramides) and lipid mimics (e.g., saturated long chain alcohols) still have limited solubility in the surfactant solutions, especially in the pH range of interest, pH less than or equal to 8. Solubility can be determined by visual observation of a series of solutions that were allowed to equilibrate at room temperature for approximately 48 hours. We also determined solubility by absorbance of light at a particular wavelength, where we have used a UV-Vis 96 spectrophotometer well plate reader (Spectra Max, 340 pc Model) with the wavelength set at 500 nm. […] The surfactant solution pH was adjusted to the desired range (usually 6 to 6.6) prior to addition of the lipid. […] In some cases, we have determined solubility by analyzing a dilution series of samples using a UV-Vis 96 spectrophotometer (Spectra Max, Model 340pc). The samples of the dilution series were pipeted into a well plate reader and inserted into the spectrophotometer, which measured absorbance at a wavelength of 500 nm. The solubility limit was determined by extrapolating the absorbance readings to the baseline. These values are reported in Table 2 as determined by Method B.

For series [3] the following is noted: typical anionic surfactant; cited from earlier work.
The nature of series [4]: Krafft point: lowest temperature at which cloudiness is observed in a 1% by weight surfactant solution. It counts as physicochemical. The conditions noted are these: 1% by weight solution; upper bound, solution observed clear at stated temperature. The source says:
The Krafft temperature is the minimum temperature at which surfactants form micelles. […] Below the Krafft temperature, there is no value for the critical micelle concentration (CMC), i.e., surfactant micelles will not form. A portion of the surfactant exists as a precipitate and the mixture of surfactant and water will appear cloudy or have an obvious phase settled at the bottom of a sample below the Krafft temperature. We consider only surfactants or mixtures of surfactants with Krafft temperatures at or below 20° C., so it suffices to verify that the surfactant mixtures of interest are completely soluble at 20° C. We verified this for the commercial surfactant solutions of interest. In particular, we have verified that the Krafft temperature for mixtures of sodium lauryl-1-ether sulfate and cocoamidopropyl betaine, and for mixtures of the commercial blend known as Miracare SLB lies below 20° C.
Our operational definition of Krafft point here is the lowest temperature at which cloudiness is observed in a 1% by weight solution of surfactant. The table indicates the upper bound on Krafft point, i.e., solution observed to be clear at stated temperature.

Where only a bound is given, the exact number is not on record here.

Take `CC(C)CCC[C@@H](C)[C@H]1CC[C@H]2[C@@H]3CC=C4C[C@@H](O)CC[C@]4(C)[C@H]3CC[C@]12C` [Cholesterol]: the “Solubility Limit” value in series [1] was ~5 × 10^−3 weight fraction of total solution.

With `CCCCCCCCCCCC(=O)O` [Lauric acid], the solubility entry in series [2] (in 5 wt. % SLES1EO/CAPBet solution) was “approximately 0.08 wt. %”. Besides, the “solubility as share of the surfactant weight” value in series [2] (in a 5 wt. % surfactant solution) is on record as “approximately 16%”. As to `CCCCCCCCCCCCOS(=O)(=O)[O-].[Na+]` [sodium dodecyl sulfate], the Krafft temperature in series [3] was 18.4 °C.

As to “Sodium tridecethsulfate [Trideceth Sulfate (TDS)]”, in series [4], the “Krafft T” value was below 15 °C.
